In patent US20210205415A1 (Longevity Biotech, Inc., priority 2010, published 2021):
No end group written: not given here.

Legend:
VIPR2 = molecular target: T1, VIPR2 (Homo sapiens, UniProt P41587); test: cAMP Hunter cell line agonist mode assay (DiscoveRx HitHunter cAMP XS+); format: cell-based; conditions: for Mean RLU: readout cAMP, cell line VIPR2
T1 sequence (P41587 24-438): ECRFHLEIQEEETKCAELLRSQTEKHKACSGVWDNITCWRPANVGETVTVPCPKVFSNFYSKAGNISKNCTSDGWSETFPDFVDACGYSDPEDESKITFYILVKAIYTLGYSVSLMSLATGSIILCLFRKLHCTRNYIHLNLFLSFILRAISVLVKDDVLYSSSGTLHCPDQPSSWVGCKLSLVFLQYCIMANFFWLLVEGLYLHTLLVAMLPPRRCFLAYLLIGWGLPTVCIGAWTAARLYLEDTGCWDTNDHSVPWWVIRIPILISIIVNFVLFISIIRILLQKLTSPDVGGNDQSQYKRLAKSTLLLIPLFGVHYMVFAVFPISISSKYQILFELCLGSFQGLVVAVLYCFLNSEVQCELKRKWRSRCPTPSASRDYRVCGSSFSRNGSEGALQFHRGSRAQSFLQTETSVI
Method: (§1) Once it was established that the cells were healthy and growing normally, cells were passaged from flasks using cell dissociation reagent buffer and seeded into white walled clear bottom 384-well microplates for compound profiling. For profiling, cells were seeded at a density of 10,000 cells per well in a total volume of 20 μL and were allowed to adhere and recover overnight prior to compound addition. cAMP modulation was determined using the DiscoveRx HitHunter cAMP XS+ assay.
(§2) For profiling compound in agonist mode, the cells were incubated in the presence of compound at 37° C. for 30 minutes. […] After appropriate compound incubation, assay signal was generated through incubation with DiscoverX lysis cocktail according to the manufacturers standard protocol. Dose curves were plotted using GraphPad Prism or Activity Base. Percentage activity is calculated using the following formula:
(§3) % Activity=100% ×(mean RLU of test sample−mean RLU of vehicle control)/(mean RLU of MAX control−mean RLU of vehicle control).

VIPR1 = molecular target: T2, VIPR1 (Homo sapiens, UniProt P32241); test: as above; format: cell-based; conditions: for Mean RLU: readout cAMP, cell line VIPR1
T2 sequence (P32241 31-457): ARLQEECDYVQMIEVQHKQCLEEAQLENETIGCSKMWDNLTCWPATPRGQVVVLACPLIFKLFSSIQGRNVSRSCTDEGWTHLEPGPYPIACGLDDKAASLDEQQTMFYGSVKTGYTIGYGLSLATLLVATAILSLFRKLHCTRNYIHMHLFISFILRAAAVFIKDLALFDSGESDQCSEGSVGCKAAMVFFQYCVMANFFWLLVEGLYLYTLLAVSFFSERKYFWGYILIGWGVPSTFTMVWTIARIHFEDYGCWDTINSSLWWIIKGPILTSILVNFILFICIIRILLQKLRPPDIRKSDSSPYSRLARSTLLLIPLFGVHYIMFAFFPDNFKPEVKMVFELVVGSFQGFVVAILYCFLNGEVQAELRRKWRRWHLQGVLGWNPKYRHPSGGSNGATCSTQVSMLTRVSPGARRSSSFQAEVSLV
Method: as §1, §2, §3

Glucagon receptor = molecular target: T3, Glucagon receptor (Rattus norvegicus, UniProt P30082); conditions: rat liver membranes; cited from earlier work
T3 construct: from tissue; host or cells: rat liver membranes (value quoted from the literature)
T3 sequence (P30082 27-485): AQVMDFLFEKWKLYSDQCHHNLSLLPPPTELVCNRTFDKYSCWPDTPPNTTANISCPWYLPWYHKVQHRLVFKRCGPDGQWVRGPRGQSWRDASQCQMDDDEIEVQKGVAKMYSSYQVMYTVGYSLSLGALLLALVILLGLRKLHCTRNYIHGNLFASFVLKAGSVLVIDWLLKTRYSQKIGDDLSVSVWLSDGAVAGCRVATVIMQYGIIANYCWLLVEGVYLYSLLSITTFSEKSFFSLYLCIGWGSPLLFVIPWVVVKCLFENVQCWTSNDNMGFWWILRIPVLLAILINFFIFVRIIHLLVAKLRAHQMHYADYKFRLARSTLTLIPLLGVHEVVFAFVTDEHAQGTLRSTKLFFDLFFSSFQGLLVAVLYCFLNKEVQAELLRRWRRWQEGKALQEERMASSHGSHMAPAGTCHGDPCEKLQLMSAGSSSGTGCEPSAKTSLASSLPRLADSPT

mouse CRF2β = mouse CRF2β (Mus musculus, UniProt Q60748); conditions: read-out: Kd for binding to mouse CRF2β; cited from earlier work
Sequence of mouse CRF2β (Q60748 1-431 isoform Q60748-2): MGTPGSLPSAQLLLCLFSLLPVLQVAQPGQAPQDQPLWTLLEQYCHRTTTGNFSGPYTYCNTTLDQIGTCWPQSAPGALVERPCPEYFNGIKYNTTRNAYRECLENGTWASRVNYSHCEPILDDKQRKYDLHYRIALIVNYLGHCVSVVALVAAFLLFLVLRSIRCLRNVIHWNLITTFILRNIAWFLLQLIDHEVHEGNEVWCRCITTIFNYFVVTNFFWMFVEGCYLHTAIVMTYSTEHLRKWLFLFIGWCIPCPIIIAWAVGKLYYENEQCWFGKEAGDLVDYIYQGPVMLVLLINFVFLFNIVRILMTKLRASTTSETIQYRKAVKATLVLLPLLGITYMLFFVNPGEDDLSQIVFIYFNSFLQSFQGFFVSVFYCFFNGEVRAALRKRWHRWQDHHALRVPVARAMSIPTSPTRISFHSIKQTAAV

HEK-mCRF2β cells = molecular target: T4, HEK-mCRF2β cells (Mus musculus, UniProt Q60748); conditions: cited from earlier work
T4 construct: expressed in transfected cells; host or cells: HEK cells (value quoted from the literature)
T4 sequence (Q60748 1-431 isoform Q60748-2): as above

rat CRF1 receptors = molecular target: T5, rat CRF1 receptors (Rattus norvegicus, UniProt P35353); conditions: read-out: Kd for binding to rat CRF1 receptors; cited from earlier work
T5 sequence (P35353 24-415): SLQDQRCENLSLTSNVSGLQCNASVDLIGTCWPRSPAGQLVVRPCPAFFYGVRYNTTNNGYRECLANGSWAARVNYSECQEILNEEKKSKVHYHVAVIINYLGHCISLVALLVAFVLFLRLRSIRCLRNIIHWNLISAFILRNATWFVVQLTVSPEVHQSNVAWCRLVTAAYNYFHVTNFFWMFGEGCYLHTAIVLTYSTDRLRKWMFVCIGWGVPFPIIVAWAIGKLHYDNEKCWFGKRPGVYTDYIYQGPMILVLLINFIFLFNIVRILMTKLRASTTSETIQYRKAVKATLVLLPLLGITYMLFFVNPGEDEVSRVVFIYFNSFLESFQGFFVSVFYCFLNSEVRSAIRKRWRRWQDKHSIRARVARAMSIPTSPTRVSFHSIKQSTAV

VPAC2 receptors = molecular target: T6, VPAC2 receptors (Homo sapiens, UniProt P41587); conditions: read-out: IC50 for VPAC2 receptor; cited from earlier work
T6 sequence (P41587 24-438): T1 sequence (P41587 24-438)

VPAC1 receptor = molecular target: T7, VPAC1 receptor (Homo sapiens, UniProt P32241); conditions: cited from earlier work
T7 sequence (P32241 31-457): T2 sequence (P32241 31-457)

CRF2α = molecular target: T8, CRF2α (Homo sapiens, UniProt Q13324); conditions: cited from earlier work
T8 sequence (Q13324 1-411): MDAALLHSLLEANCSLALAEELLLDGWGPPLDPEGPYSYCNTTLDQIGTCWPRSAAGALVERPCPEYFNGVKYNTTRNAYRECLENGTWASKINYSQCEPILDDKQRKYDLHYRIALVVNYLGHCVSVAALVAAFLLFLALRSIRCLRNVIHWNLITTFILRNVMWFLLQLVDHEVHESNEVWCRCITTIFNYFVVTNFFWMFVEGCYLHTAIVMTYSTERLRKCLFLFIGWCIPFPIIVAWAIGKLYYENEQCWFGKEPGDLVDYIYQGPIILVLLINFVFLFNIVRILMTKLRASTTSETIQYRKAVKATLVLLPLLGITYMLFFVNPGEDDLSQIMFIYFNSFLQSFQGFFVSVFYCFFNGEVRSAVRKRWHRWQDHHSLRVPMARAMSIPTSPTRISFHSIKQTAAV

calcitonin (CT) receptor = conditions: cited from earlier work
[1] = test system: calcitonin-gene related peptide (CGRP) and adrenomedullin receptors; conditions: cited from earlier work
[2] = humans; cited from earlier work
neurotensin receptors = conditions: rat brain receptors; read-out: IC50 for inhibition of {Trp11}-NT binding; cited from earlier work

## CC[C@H](C)[C@H](NC(=O)[C@H]1CCC[C@@H]1NC(=O)[C@H](CC(N)=O)NC(=O)[C@H](CC(C)C)NC(=O)[C@H](Cc1ccc(O)cc1)NC(=O)[C@H]1CNC[C@@H]1NC(=O)[C@H](CCCCN)NC(=O)[C@@H](NC(=O)[C@H]1CCC[C@@H]1NC(=O)[C@H](CC(C)C)NC(=O)[C@H](CCC(N)=O)NC(=O)[C@H](CCCCN)NC(=O)[C@H]1CNC[C@@H]1NC(=O)[C@H](CC(C)C)NC(=O)[C@H](CCCNC(=N)N)NC(=O)[C@H]1CCC[C@@H]1NC(=O)[C@H](Cc1ccc(O)cc1)NC(=O)[C@H](CC(N)=O)NC(=O)[C@H](CC(=O)O)NC(=O)[C@@H](NC(=O)[C@H](Cc1ccccc1)NC(=O)[C@@H](NC(=O)[C@H](C)NC(=O)[C@H](CC(=O)O)NC(=O)[C@H](CO)NC(=O)[C@@H](N)Cc1c[nH]cn1)C(C)C)[C@@H](C)O)C(C)C)C(=O)N[C@H](CC(=O)NC(CC(N)=O)CC(N)=O)CC(C)C [Compound 8, HSDAVFTDNYXRLZKQLXVKZYLNXILN]
VIPR2
  interaction with VIPR2: does not interact substantially with VIPR2
VIPR2; FIG. 3
  activation of VIPR2: not activate VIPR2
VIPR2; [Compound] 1.00E−07 M
  Mean RLU: 5920.0 RLU
VIPR2; [Compound] 1.00E−08 M
  Mean RLU: 9580.0 RLU
VIPR2; [Compound] 1.00E−09 M
  Mean RLU: 5960.0 RLU
VIPR2; [Compound] 1.00E−10 M
  Mean RLU: 7560.0 RLU
VIPR2; [Compound] 1.00E−11 M
  Mean RLU: 9250.0 RLU
VIPR2; [Compound] 1.00E−12 M
  Mean RLU: 8960.0 RLU
VIPR2; [Compound] 5.00E−07 M
  Mean RLU: 10200.0 RLU
VIPR2; [Compound] 5.00E−08 M
  Mean RLU: 9200.0 RLU
VIPR2; [Compound] 5.00E−09 M
  Mean RLU: 3560.0 RLU
VIPR2; [Compound] 5.00E−10 M
  Mean RLU: 9620.0 RLU
VIPR1; FIG. 3 legend
  EC50 compared with wild-type VIP: higher than the EC50 of wild-type VIP protein
VIPR1; FIG. 3 legend, read-out: activation of VIPR1 relative to maximum activation
  Emax: ~100%
VIPR1; [Compound] 1.00E−08 M, agonist mode
  Mean RLU: 13750.0 RLU
VIPR1; [Compound] 1.00E−09 M, agonist mode
  Mean RLU: 18600.0 RLU
VIPR1; [Compound] 1.00E−10 M, agonist mode
  Mean RLU: 9060.0 RLU
VIPR1; [Compound] 1.00E−11 M, agonist mode
  Mean RLU: 10500.0 RLU
VIPR1; [Compound] 1.00E−12 M, agonist mode
  Mean RLU: 10340.0 RLU
VIPR1; [Compound] 5.00E−09 M, agonist mode
  Mean RLU: 13250.0 RLU
VIPR1; [Compound] 5.00E−10 M, agonist mode
  Mean RLU: 9520.0 RLU
VIPR1; agonist mode, FIG. 3
  activation of VIPR1: fully activate VIPR1

## des-His1-{Glu9}-Glucagon (1-29) amide
Glucagon receptor
  pA2 for inhibition of glucagon-induced adenylyl cyclase activation: (Glucagon receptor antagonist (pA2=72 for inhibition of glucagon-induced

## Antisauvagine-30
Mouse CRF2β
  Kd: 14 nM
HEK-mCRF2β cells
  pA2, inhibition of sauvagine-stimulated cAMP accumulation: accumulation in HEK-mCRF2β cells (pA2=849) Prevents stress-
Rat CRF1 receptors
  Kd: 1540 nM

## {Ala2,8,9,11,19,22,24,25,27,28}-VIP
VPAC2 receptors
  IC50: > 30000 nM
VPAC1 receptor
  IC50: 115 to 132 nM

## Astressin
CRF2α
  Ki: 15 nM

## Calcitoninreceptor-stimulating peptide-1 (SCNTATCMTHRLVGLLSRSGSMVRSNLLPTKMGFKVFG-NH2; ends and bridges not checked; UniProt Q862B1 81-118, looked up)
Calcitonin (CT) receptor; calcitonin (CT) receptor
  ED50, stimulation of cAMP formation: 02 nM
Calcitonin (CT) receptor; greater than CT
  potency of cAMP formation relative to CT: 350 fold
[1]
  activity at CGRP and adrenomedullin receptors: no activity at calcitonin-gene related peptide (CGRP) and adrenomedullin

## glucagon-like peptide-1 [GLP-1]
[2]
  plasma half-life: 2 min

## Neuromedin N (rat, mouse, porcine, canine) (KIPYIL; Neuromedin N; UniProt P20068 142-147, looked up)
Neurotensin receptors
  IC50: 167 nM
